Measurements reported in patent US12133541B2, “Feed composition comprising hexahydro-β-acid component compounds and application thereof” (WISORIG TECHNOLOGIES PTE. LIMITED, priority 2019, dated 2024).
Entries after “also recorded” stand apart in the source; their conditions may differ. Like-named read-outs stand apart in the source and are kept apart here.

What was measured:
[1] = 10 day, 1 wt %
Protocol: (§1) 50 mg of standard substance was accurately weighed out and dissolved in an appropriate amount of methanol by ultrasonication. The solution was then transferred to a 50 mL volumetric flask and diluted to volume with methanol to give a stock solution. Working solutions with concentration as 25 ppm, 125 ppm, 250 ppm, 500 ppm, and 1000 ppm were prepared respectively by the dilution of appropriate amount of the stock solution.
(§2) • Column: Symmetry C18 column (Waters; 250 mm*4.6 mm, 5 μm) • Mobile phase: 0.02% phosphoric acid:methanol=5:95 (v:v) • Wavelength: 223 nm • Column temperature: 25° C. • Injection volume: 10 μL • Flow rate: 1 mL/min
(§3) Thermal stability testing: The test samples were spread in petri dishes to form thin layers of ≤5 mm and placed in a drug stability testing chambers at 60° C. Samples were taken with 3 replications in parallel for each of test samples on day 5 and day 10 for HPLC analysis.

[2] = Breeding experiment: production performance of broilers; format: in vivo, yellow broilers; settings: 30 days; for ADFI (g/d per broiler) / ADG (g/d per broiler) / FCR: basal ration with 25 ppm of active ingredient; for ADFI (g/d per broiler) / ADG (g/d per broiler): 1-day-old yellow broilers; for FCR: feed intake/weight gain
Protocol: The experiment was conducted with single-factor randomized design. 720 1-day-old yellow broilers with a similar average body weight of 50 g, were randomly divided into 8 groups, with 6 replicates per group, equal amount of males and females and 15 yellow broilers per replicate. The chicken house and tools were sterilized before the experiment. During the experiment, the broilers were kept in separate regions in the same chicken house under the same feeding and management conditions. Basal ration mainly consisted of corn and soybean meal. During the entire process, each group was not given other antioxidants or growth promoters. The groups were control group (group 1) and test groups 2 to 8, wherein the control group was given basal ration only, while the test groups 2 to 8 were respectively given basal ration in combination with the different additives with 25 ppm of the active ingredient thereof, wherein the active ingredient was hexahydro-β-acids, or the hexahydro-β-acid compounds, or the coated substances of the hexahydro-β-acid compounds as shown in Table 4.
The experiment lasted for 30 days. The broilers were given ad libitum access to food and water, and feeds were provided twice every day. At the day when the broilers were 31-day old (after withdrawing feed for 12 hours, without withdrawing water), taking each replicate as one unit, body weight of the broilers was measured, and each of average daily feed intake (ADFI, g/d per broiler), average daily weigh gain (ADG, g/d per broiler), and feed conversion ratio (FCR) was calculated. Feed conversion ratio (FCR)=average daily feed intake/average daily weight gain

[3] = Thermal stability testing at 60° C. (HPLC); settings: for Concentration (%) Day 5 / Concentration (%) Day 10: day 0 = 100%; for degradation ratio: 10-day testing period
Protocol: as §1, §2, §3

[4] = Stability testing at ambient temperature of feeds (HPLC); format: physicochemical; settings: for Concentration (%) Day 5 / Concentration (%) Day 10: room temperature, day 0 = 100%
From the text: Stability testing at ambient temperature: The samples were placed in a room-temperature environment. Samples were taken on day 5 and day 10 for HPLC analysis, and three replications were taken in parallel for each test sample.

[5] = Breeding experiment: production performance of hogs; format: in vivo, Duroc×Landrace×Yorkshire cross-bred bacon-type piglets; settings: for ADFI (g/d per piglet) / ADG (g/d per piglet) / FCR: basal ration with 25 ppm of active ingredient; for ADFI (g/d per piglet) / ADG (g/d per piglet) / FCR / animal production performance compared with the hexahydro-β-acids (in words) / change rate of feed intake compared with the control group / change rate of weight gain compared with the control group / decrease rate of feed conversion ratio compared with the control group: 14 days; for ADFI (g/d per piglet) / ADG (g/d per piglet): 67-day-old piglets; for FCR: feed intake/weight gain; for animal production performance compared with the hexahydro-β-acids (in words) / change rate of feed intake compared with the control group / change rate of weight gain compared with the control group / decrease rate of feed conversion ratio compared with the control group / average daily weight gain vs control (in words): piglets; for animal production performance compared with the hexahydro-β-acids (in words) / change rate of feed intake compared with the control group / change rate of weight gain compared with the control group / decrease rate of feed conversion ratio compared with the control group: 25 ppm; for average daily weight gain vs control (in words): difference above 5% deemed obvious
From the text: 240 67-day-old Duroc×Landrace×Yorkshire cross-bred bacon-type piglets with similar body weight, were randomly divided into 8 groups, with 3 replications per group, 10 piglets per replication and equal amount of males and females. The pig pen and tools were sterilized before the experiment. During the experiment, the piglets were kept in separate regions in the same pig pen under the same feeding and management conditions. The piglets were given ad libitum access to food and water, and feeds were provided twice every day. The groups were control group (group 1) and test groups 2 to 8, wherein piglets of the control group were given basal ration only, those of the test groups 2 to 8 were respectively given basal ration in combination with different additives with 25 ppm of active ingredient thereof, wherein the active ingredient was hexahydro-β-acids, or the hexahydro-β-acid compounds, or the coated substances of the hexahydro-β-acid compounds, as shown in Table 3.
During the entire process, each test group was not given other antioxidants or growth promoters. The experiment lasted for 14 days. On the 14th day, after withdrawing feed (without withdrawing water) for 12 hours, taking each replicate as one unit, the weight of each replication piglets was measured and each of average daily feed intake (ADFI, g/d per piglet), average daily weigh gain (ADG, g/d per piglet), and feed conversion ratio (FCR) was calculated. Average daily feed intake=(Total weight of provided feed−Weight of remaining feed)/(Number of days×Amount of piglets in each replicate) Average daily weight gain=(final average body weight−initial average body weight)/number of test days Feed conversion ratio=average daily feed intake/average daily weight gain

[6] = 1% premix of hexahydro-β-acid compound
[7] = component within 1% premix of hexahydro-β-acids
[8] = component within hexahydro-β-acids
[9] = hexahydro-β-acid compound (free or coated substance)
[10] = component within feed comprising 25 ppm of hexahydro-β-acids
[11] = feed comprising 25 ppm of hexahydro-β-acid compound

Row | Compound | ADFI (g/d per broiler) [2] [g/d per broiler] | ADG (g/d per broiler) [2] [g/d per broiler] | FCR [2] | change rate of feed intake compared with the control group ([2]; broilers, 25 ppm) [%] | change rate of weight gain compared with the control group ([2]; broilers, 25 ppm) [%] | decrease rate of feed conversion ratio compared with the control group ([2]; broilers, 25 ppm) [%] | Concentration (%) Day 5 [3, 6] [%] | Concentration (%) Day 10 [3, 6] [%] | Concentration (%) Day 5 [3, 7] [%] | Concentration (%) Day 10 [3, 7] [%] | Concentration (%) Day 5 [3, 8] [%] | Concentration (%) Day 10 [3, 8] [%] | Concentration (%) Day 5 [3, 9] [%] | Concentration (%) Day 10 [3, 9] [%] | stability in feeds (in words) ([4]; ambient temperature) | Concentration (%) Day 5 [4, 10] [%] | Concentration (%) Day 10 [4, 10] [%] | ADFI (g/d per piglet) [5] [g/d per piglet] | ADG (g/d per piglet) [5] [g/d per piglet] | FCR [5] | also measured
1 | CC(C)CCC1=C(O)C(C(=O)C(C)C)=C(O)C(CCC(C)C)(CCC(C)C)C1=O [Hexahydro-colupulone, hexahydro-colupulone] | 49.68 | 25.19 | 1.97 | 0.26 | 8.86 | 7.94 | 99.39 | 97.39 | 97.02 | 97.56 | 96.48 | 90.43 | 99.76 | 99.10 | excellent short-term stability; also recorded: favourable stability | 53.88 | 37.69 | 894 | 403 | 2.218 | degradation ratio [1]: 2.6%; decrease in the concentration ([3]; day 10, component within 1% premix of hexahydro-β-acids): about 2.4%; decrease in the concentration ([3]; day 10, component within hexahydro-β-acids): about 10%; animal production performance compared with the hexahydro-β-acids (in words) [5]: improve the animal production performance effectively; change rate of feed intake compared with the control group [5]: 2.40%; change rate of weight gain compared with the control group [5]: 12.57%; decrease rate of feed conversion ratio compared with the control group [5]: 8.99%; average daily weight gain vs control (in words) [5]: obvious increase
2 | hexahydro-adlupulone | 50.06 | 24.59 | 2.04 | 1.03 | 6.27 | 4.67 | 97.24 | 95.68 | 88.97 | 88.63 | 91.48 | 82.87 | 98.01 | 96.63 | excellent short-term stability; also recorded: favourable stability | 60.55 | 0 | 860 | 368 | 2.340 | decrease in feed conversion ratio / feed efficiency (in words) ([2]; broilers, 25 ppm): more effective than hexahydro-β-acids; degradation ratio ([3]; 1% premix of the compound): 4.3%; animal production performance compared with the hexahydro-β-acids (in words) [5]: improve the animal production performance effectively; change rate of feed intake compared with the control group [5]: 1.49%; change rate of weight gain compared with the control group [5]: 2.79%; decrease rate of feed conversion ratio compared with the control group [5]: 3.98%; average daily weight gain vs control (in words) [5]: obvious increase
3 | hexahydro-lupulone [reference compound] | 49.13 | 23.58 | 2.08 | −0.85 | 1.90 | 2.80 | 92.37 | 91.21 | 89.92 | 87.62 | 91.97 | 79.62 | 99.10 | 92.85 | very poor stability in feeds | 63.08 | 0 | 864 | 358 | 2.413 | degradation ratio ([3]; 1% premix of the compound): 8.8%; degradation ratio ([3]; compound or coated substance): 7.2%; decrease of active compound in feed ([4]; ambient temperature, 10-day period, feed with 25 ppm): 95%; Concentration (%) Day 5 [4, 11]: 17.78%; Concentration (%) Day 10 [4, 11]: 4.96%; change rate of feed intake compared with the control group [5]: −1.03%; change rate of weight gain compared with the control group [5]: 0%; decrease rate of feed conversion ratio compared with the control group [5]: 0.98%
